For 12 compounds, Ki and inhibition results are on record in patent publication US5686486A, “4-hydroxy-benzopyran-2-ones and 4-hydroxy-cycloalkyl[b]pyran-2-ones useful to treat retroviral infections” (priority 1995, dated 1997).

In experiment [1] the target is T1, HIV-1 protease (Human immunodeficiency virus type 1 group M subtype B, UniProt P04585). In words: biochemical. The conditions noted are these: read-out: HIV-1 FITC KI. The method in brief: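 Enzyme (40 nM stock) and substrate (200 μM stock) incubated with inhibitor, 24–48 two-fold serial concentrations, for 90 min at room temperature, then quenched with avidin beads. Nonlinear least-squares analysis gives Ki; a known-Ki inhibitor validates each run.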

Experiment [2] has as its target T1, HIV-1 protease. Briefly: biochemical. The settings on record: for inhibition at 0.123 µM: read-out: HIV-1 Protease % Inhib, dose 0.123 uM; for inhibition at 0.37 µM: read-out: HIV-1 Protease % Inhib, dose 0.370 uM; for inhibition at 1.1 µM: read-out: HIV-1 Protease % Inhib, dose 1.100 uM; for inhibition at 3.3 µM: read-out: HIV-1 Protease % Inhib, dose 3.300 uM; for inhibition at 10 µM: read-out: HIV-1 Protease % Inhib, dose 10.000 uM; for inhibition at 30 µM: read-out: HIV-1 Protease % Inhib, dose 30.000 uM. The procedure, abridged:
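Percent inhibition derived from fluorescent cleavage product separated by filtration after streptavidin-bead capture of intact biotin/FITC substrate. Reaction: enzyme (10 μl, 0.1 μM stock) with substrate (20 μl, 0.2 μM stock) and compound, 1 h at room temperature in dark, pH 5.5 acetate buffer with 1.0 M NaCl and 0.05% NP-40.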

Broadly, the Ki is the equilibrium dissociation constant of an inhibitor or competing ligand from its target.

Several values for one entry are separate records, joined by “and”; a condition that tells them apart may be missing. Equal entries are not always repeated.

Take `O=c1oc2c(c(O)c1C(c1cccc(NS(=O)(=O)c3ccc(N=Nc4ccccc4)cc3)c1)C1CC1)CCCCCC2` (centres unmarked) [Example 308, N-[3-[Cyclopropyl(5,6,7,8,9,10-hexahydro-4-hydroxy-2-oxo-2H-cycloocta[b]pyran-3-yl)methyl]phenyl]4-(phenylazo)-benzenesulfonamide]: the Ki at HIV-1 protease [1] was determined as 3.1 nM. On HIV-1 protease [2], the inhibition at 0.123 µM came to 46.5%, the inhibition at 0.37 µM amounted to 70.4%, the inhibition at 1.1 µM is 82.3% and the inhibition at 3.3 µM worked out at 91.3%. In addition, on HIV-1 protease [2], the inhibition at 10 µM turned out to be 96.9% and the inhibition at 30 µM turned out to be 86.8%.

As for `CN(C)c1ccc(N=Nc2ccc(S(=O)(=O)Nc3cccc(C(c4c(O)c5c(oc4=O)CCCCCC5)C4CC4)c3)cc2)cc1` (centres unmarked) [Example 309, N-[3-[Cyclopropyl(5,6,7,8,9,10-hexahydro-4-hydroxy-2-oxo-2H-cycloocta[b]pyran-3-yl)methyl]phenyl]-4-[[4-(dimethylamino)phenyl]azo]-benzenesulfonamide], the Ki at HIV-1 protease [1] came out at 5.8 nM. Moreover, on HIV-1 protease [2], the inhibition at 0.123 µM is 46.6%, the inhibition at 0.37 µM came out at 67.5%, the inhibition at 1.1 µM was determined as 82.5% and the inhibition at 3.3 µM turned out to be 76.5%. For the same compound, at HIV-1 protease [2], the inhibition at 10 µM worked out at 43.7% and the inhibition at 30 µM is 19.2%.

As to `O=c1oc2c(c(O)c1C(c1cccc(NS(=O)(=O)c3ccc(-c4ccccn4)s3)c1)C1CC1)CCCCCC2` (centres unmarked) [Example 310, N-[3-[Cyclopropyl(5,6,7,8,9,10-hexahydro4-hydroxy-2-oxo-2H-cycloocta[b]pyran-3-yl)methyl]phenyl]-5-(2-pyridinyl)-2-thiophenesulfonamide], the Ki on HIV-1 protease [1] is 2.37 nM. Besides, at HIV-1 protease [2], the inhibition at 0.123 µM amounted to 46.2%, the inhibition at 0.37 µM is 86.2%, the inhibition at 1.1 µM was determined as 94.9% and the inhibition at 3.3 µM worked out at 99%. On HIV-1 protease [2], the inhibition at 10 µM came to 103% and the inhibition at 30 µM amounted to 102%.

For `Cc1c(Cl)cccc1S(=O)(=O)Nc1cccc(C(c2c(O)c3c(oc2=O)CCCCCC3)C2CC2)c1` (centres unmarked) [Example 311, 3-Chloro-N-[3-[cyclopropyl(5,6,7,8,9,10-hexahydro-4-hydroxy-2-oxo-2H-cycloocta[b]pyran-3-yl)methyl]phenyl]-2-methyl-benzenesulfonamide], the Ki on HIV-1 protease [1] was 6.33 nM. Also, on HIV-1 protease [2], the inhibition at 0.123 µM was 20.8%, the inhibition at 0.37 µM turned out to be 71.2%, the inhibition at 1.1 µM is 86.4% and the inhibition at 3.3 µM worked out at 92%. For the same compound, on HIV-1 protease [2], the inhibition at 10 µM worked out at 99.5% and the inhibition at 30 µM was found to be 99.5%.

Turning to `O=c1oc2c(c(O)c1C(c1cccc(NS(=O)(=O)c3ccc(OC(F)(F)F)cc3)c1)C1CC1)CCCCCC2` (centres unmarked) [Example 312, N-[3-[Cyclopropyl(5,6,7,8,9,10-hexahydro-4-hydroxy-2-oxo-2-cycloocta[b]pyran-3-yl)methyl]phenyl]-4-(trifluoromethoxy)-benzenesulfonamide], the Ki at HIV-1 protease [1] came out at 4 nM. Further, on HIV-1 protease [2], the inhibition at 0.123 µM worked out at 48.2%, the inhibition at 0.37 µM was found to be 83.6%, the inhibition at 1.1 µM came out at 89.7% and the inhibition at 3.3 µM worked out at 106%. In addition, at HIV-1 protease [2], the inhibition at 10 µM is 114% and the inhibition at 30 µM turned out to be 110%.

With `O=c1oc2c(c(O)c1C(c1cccc(NS(=O)(=O)c3cccc(NS(=O)(=O)CCCCl)c3)c1)C1CC1)CCCCCC2` (centres unmarked) [Example 313], the inhibition constant Ki at HIV-1 protease [1] amounted to 1.17 nM. Also, at HIV-1 protease [2], the inhibition at 0.123 µM is 104%, the inhibition at 0.37 µM amounted to 96.5%, the inhibition at 1.1 µM was 101% and the inhibition at 3.3 µM worked out at 100%. In addition, on HIV-1 protease [2], the inhibition at 10 µM was 106% and the inhibition at 30 µM came to 102%.

Take `O=c1oc2c(c(O)c1C(c1cccc(NS(=O)(=O)c3cccnc3)c1)C1CC1)CCCCCC2` (centres unmarked) [Example 314, N-[3-[Cyclopropyl(5,6,7,8,9,10-hexahydro-4-hydroxy-2-oxo-2H-cylcloocta[b]pyran-3-yl)methyl]phenyl]-3-pyridinesulfonamide]: the Ki at HIV-1 protease [1] was 2.31 nM and 2.01 nM. For the same compound, on HIV-1 protease [2], the inhibition at 0.123 µM was determined as 79.5%, the inhibition at 0.37 µM was determined as 97.7%, the inhibition at 1.1 µM is 108% and the inhibition at 3.3 µM worked out at 109%. In addition, at HIV-1 protease [2], the inhibition at 10 µM amounted to 102% and the inhibition at 30 µM is 97.1%.

Turning to `Cc1cncc(S(=O)(=O)Nc2cccc(C(c3c(O)c4c(oc3=O)CCCCCC4)C3CC3)c2)c1` (centres unmarked) [Example 315, N-[3-[Cyclopropyl(5,6,7,8,9,10-hexahydro4-hydroxy-2-oxo-2H-cycloocta[b]pyran-3-yl)methyl]phenyl]-5-methyl-3-pyridinesulfonamide], the Ki at HIV-1 protease [1] amounted to 2.58 nM. Further, at HIV-1 protease [2], the inhibition at 0.123 µM was 80.7%, the inhibition at 0.37 µM stood at 94.7%, the inhibition at 1.1 µM was determined as 91.9% and the inhibition at 3.3 µM was 95.2%. For the same compound, at HIV-1 protease [2], the inhibition at 10 µM amounted to 86.7% and the inhibition at 30 µM came to 81.4%.

With `C=CS(=O)(=O)Nc1cccc(C(c2c(O)c3c(oc2=O)CCCCCC3)C2CC2)c1` (centres unmarked) [Example 316, N-[3-[Cycloproopyl(5,6,7,8,9,10-hexahydro4-hydroxy-2-oxo-2H-cycloocta[b]pyran-3-yl)methyl]phenyl]-ethenesulfonamide], on HIV-1 protease [1], the Ki is 18 nM. Also, at HIV-1 protease [2], the inhibition at 0.37 µM came out at 31.2%, the inhibition at 1.1 µM is 77.8%, the inhibition at 3.3 µM was found to be 98.1% and the inhibition at 10 µM was determined as 103%. For the same compound, the inhibition at 30 µM on HIV-1 protease [2] came to 111%.

Turning to `CCS(=O)(=O)Nc1cccc(C(c2c(O)c3c(oc2=O)CCCCCC3)C2CC2)c1` (centres unmarked) [Example 318, N-[3-[Cyclopropyl(5,6,7,8,9,10-hexahydro-4-hydroxy-2-oxo-2H-cycloocta[b]pyran-3-yl)methyl]phenyl]-ethanesulfonamide], the Ki on HIV-1 protease [1] is 9.9 nM. At HIV-1 protease [2], the inhibition at 0.123 µM came out at 28.3%, the inhibition at 0.37 µM was found to be 45.1%, the inhibition at 1.1 µM came to 84.2% and the inhibition at 3.3 µM was 99.7%. At HIV-1 protease [2], the inhibition at 10 µM was determined as 97.5% and the inhibition at 30 µM is 106%.

Regarding `O=c1oc2c(c(O)c1C(c1cccc(NS(=O)(=O)c3ccccc3)c1)C1CC1)CCCCCC2` (centres unmarked) [Example 319, N-[3-[Cyclopropyl(5,6,7,8,9,10-hexahydro-4-hydroxy-2-oxo-2H-cycloocta[b]pyran-3-yl)methyl]phenyl]-benzenesulfonamide], the Ki on HIV-1 protease [1] was 4.3 nM and 3.3 nM and 2.1 nM. Besides, at HIV-1 protease [2], the inhibition at 0.123 µM was 67%, the inhibition at 0.37 µM turned out to be 84.2%, the inhibition at 1.1 µM stood at 93.1% and the inhibition at 3.3 µM is 94.3%. Further, on HIV-1 protease [2], the inhibition at 10 µM was determined as 102% and the inhibition at 30 µM was found to be 101%.

As to `O=c1oc2c(c(O)c1C(c1cccc(NS(=O)(=O)C=Cc3ccccc3)c1)C1CC1)CCCCCC2` (centres unmarked) [Example 320, N-[3-[Cyclopropyl(5,6,7,8,9,10-hexahydro-4-hydroxy-2-oxo-2H-cycloocta[b]pyran-3-yl)methyl]phenyl]-2-phenyl-ethenesulfonamide], at HIV-1 protease [1], the inhibition constant Ki is 3.8 nM and 2.1 nM. Further, on HIV-1 protease [2], the inhibition at 0.123 µM was found to be 66.4%, the inhibition at 0.37 µM turned out to be 78.5%, the inhibition at 1.1 µM worked out at 98.2% and the inhibition at 3.3 µM came out at 102%. Moreover, on HIV-1 protease [2], the inhibition at 10 µM amounted to 99.3% and the inhibition at 30 µM was determined as 99%.
